Experimental data reported in patent US20250064791A1, “5-[[4-[2-[5-(1-HYDROXYETHYL)PYRIDIN-2-YL]ETHOXY]PHENYL]METHYL]-1,3-THIAZOLIDINE-2,4-DIONE AND ITS SALTS FOR USE IN THE TREATMENT OF MITOCHONDRIAL DISEASES” (MINORYX THERAPEUTICS S.L., priority 2018, published 2025).

Assays:
[1] = target: mitochondrial pyruvate carrier (MPC) (Homo sapiens (Human), UniProt O95563+Q9Y5U8); experiment: MPC inhibitory activity, BRET assay in HEK cells; assay type: cell-based
Experimental: The MPC is a heterodimer composed of two subunits, MPC1 and MPC2. MPC1 and MPC2 interact to form an active carrier. In the assay, MPC2 was fused to Rluc8 (Donor) and MPC1 to Venus (Acceptor). These chimeric proteins were stably expressed in HEK cells. BRET activity was measured following addition of coelenterazine in the culture medium. Coelenterazine enters into cells and in contact with luciferase Rluc8 emits light, which activates the emission of fluorescence by the Acceptor, provided the distance between the Donor and Acceptor is <[…]. If the distance between Donor and Acceptor is >[…], no BRET activity is measured. The level of BRET activity reflects a change in the conformation of the MPC: it is high when the carrier is in a closed conformation, low when the carrier is at rest and intermediary when it transports pyruvate. In this case, the BRET activity is the mean value between the BRET value when the carrier is at rest (Maximal distance between Donor and Acceptor) and the BRET value when it is closed (Shortest distance between Donor and Acceptor)

[2] = test system: wild type MDA MB 231 cells; experiment: Mitochondrial respiration (OCR), Seahorse, wild type MDA MB231 cells; assay type: cell-based; conditions: cells with active MPC
Experimental: (§1) To determine whether MIN-102 has any effect on pyruvate-mediated mitochondrial respiration, the extracellular flux analyzer Seahorse was used as described in Compan et al. Seahorse experiments were performed in the following cell lines: HeLa (Cervix cancer cells), A549 (lung cancer cells), wild type MDA MB 231, and MDA MB 231 in which MPC2 has been deleted, leading to inactivation of the MPC (MDA MB231 KO). MDA MB231 cells are epithelial breast cancer cells. Cells were incubated with increasing concentrations of the compounds for one hour at 37° C. before oxygen consumption rate (OCR) measurements. The Seahorse analyzer allowed to measure basal and maximal respiration measured upon depolarization with 1 μM CCCP.
(§2) The KO cells have been deleted of the MPC2 gene and therefore they display no MPC activity. […] OCR values are expressed as ratios of OCR in the presence of different concentrations of the tested compound over the OCR in PBS alone.

[3] = test system: MDA MB231 KO cells; experiment: Mitochondrial respiration (OCR), Seahorse, MDA MB231 KO cells (MPC2 deleted); assay type: cell-based; conditions: MPC activity genetically deleted (MPC2 KO)
Experimental: as §1, §2

[4] = test system: adiponectin; experiment: Plasma adiponectin levels in Sprague Dawley rats (ELISA); assay type: in vivo; conditions: 54 mg/Kg/day for 7 days, plasma 1 h after last administration, vs vehicle
Experimental: Evaluation of the effect of Compounds of the Disclosure on adiponectin was performed in Sprague Dawley rats. The rats were treated for 7 days with repeated doses of MIN-102 at 54 mg/Kg/day. Plasma were obtained at 1 h after the last M1N-102 administration. Adiponectin levels were measured by ELISA. Results were represented as mean+standard error of the mean of n=8. Data were analyzed by Kruskal-Wallis followed by the Dunn post-hoc test versus the vehicle group (****,p<0.0001).

[5] = test system: MCD diet fed C57BL6/J mice; experiment: Methionine Choline Deficient (MCD) diet NASH mouse model; assay type: in vivo, C57BL6/J male mice; conditions: 62.5 mg/kg BID orally
Experimental: The preventive effects of MIN-102 was evaluated in a 7-week Methionine Choline Deficient (MCD) diet NASH mouse model (Verdelho Machado et al.). After the acclimation period, C57BL6/J male mice (n=20) were weighed and randomized into 2 homogenous treatment groups based on body weight (n=10/group), put on a MCD diet, and treated BID orally with vehicle or MIN-102 for 7 weeks.
MIN-102 was dosed 62.5 mg/kg BID orally by gavage.
After the acclimation period, C57BL6/J male mice (n=20) were weighed and randomized into 2 homogenous treatment groups based on body weight (n=10/group), put on a MCD diet, and treated BID orally with a vehicle or MIN-102 (125 mg/Kg/day) for 7 weeks. Body weight was measured 3 times/week until the end of the experimental phase.
At 7 weeks of diet/treatment, mice were weighed and treated at ˜08:00 am in the morning, then bled (maximal volume/EDTA) at ˜1:00 pm. Plasma was then immediately isolated and stored at −80° C. prior to assay plasma ALT and AST. The plasma volume left over was stored at −80° C. for eventual additional analysis.
After blood collection, the mice were sacrificed by cervical dislocation under isoflurane anesthesia and exsanguinated with sterile saline.
Histology analysis was performed (oil red O, H&E and Sirius Red staining) for NAFLD scoring system (NAS) for liver steatosis, inflammation, fibrosis and hepatocyte ballooning.

[6] = humans, compared with pioglitazone; from PCT/IB2017/057587; cited from earlier work

Chain of mitochondrial pyruvate carrier (MPC) (Q9Y5U8 whole entry, the tested form may be a part): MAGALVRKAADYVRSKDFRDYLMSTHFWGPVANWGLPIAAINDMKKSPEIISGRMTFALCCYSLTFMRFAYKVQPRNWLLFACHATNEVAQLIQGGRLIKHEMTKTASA
Chain of mitochondrial pyruvate carrier (MPC) (O95563 whole entry, the tested form may be a part): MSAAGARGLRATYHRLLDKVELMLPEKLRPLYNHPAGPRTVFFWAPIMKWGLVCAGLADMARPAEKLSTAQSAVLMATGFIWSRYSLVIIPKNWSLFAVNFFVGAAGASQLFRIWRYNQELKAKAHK

## CN(CCOc1ccc(CC2SC(=O)NC2=O)cc1)c1ccccn1 (centres unmarked) [Rosiglitazone]
[1]
  IC50: 2 µM

## CC(O)c1ccc(CCOc2ccc(CC3SC(=O)NC3=O)cc2)nc1 (racemic) [MIN-102, 5-[[4-[2-[5-(1-hydroxyethyl)pyridin-2-yl]ethoxy]phenyl]methyl]-1,3-thiazolidine-2,4-dione]
[2]
  effect on oxygen consumption: inhibits oxygen consumption in a MPC dependent manner
[3]
  effect on oxygen consumption: does not inhibit oxygen consumption
[4]
  adiponectin levels in plasma: significantly increased
[5]; 7 weeks
  hepatic cholesterol levels: did not show a change
[5]; 7 weeks, vs vehicle
  oil red o staining %: extremely low
  reduction in hepatic triglycerides levels: 92%
  reduction of plasma ALT level: 78%
  reduction of plasma AST level: 55%
[5]; 7 weeks, histology
  Mean NAS group score: 0.44±01
  liver inflammation: total disappearance of inflammation
[5]; 7 weeks, histology, vs vehicle
  steatosis score: blunted steatosis score
[5]; day 14 to day 50, vs vehicle
  body weight loss: less severe decline in body weight loss
[6]
  variability in exposure (PK variability): less variability in exposure than pioglitazone
